From patent publication US20100311714A1, “1H-IMIDAZO[4,5-c]QUINOLINONE COMPOUNDS” (priority 2009, published 2010)
Like-named read-outs stand apart in the source and are kept apart here.

Tests used:
[1] = target: T1, PI3K alfa (Homo sapiens, UniProt P42336); experiment: PI3K alpha kinase assay (Kinase-Glo luminescence); assay type: biochemical
T1 construct: His tag (C); made in house; host or cells: baculovirus BV1075; Tn5 (Trichoplusia ni) or TiniPro insect cells
Procedure, shortened: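 Kinase-Glo luminescence read of ATP remaining after PI3Kα (10 nM) phosphorylates 10 μg/mL bovine liver phosphatidylinositol with 1 μM ATP, pH 7.5 TRIS, 3 mM MgCl2, 0.05% CHAPS; 60 min at room temperature. IC50 from 4-parameter logistic fit over 8 concentrations.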

[2] = test system: S6 Ribosomal Protein phosphorylation Ser235/236 in TSC1 null mouse embryo fibroblast (MEF) cells; experiment: Reverse protein array, S6 Ribosomal Protein phosphorylation in TSC1 null MEF cells; assay type: cell-based; conditions: 1 h, TSC1-/- MEFs, 60 minutes
Method: TSC1−/− MEFs cells (provided by D. Kwiatkowski), were cultivated in Dulbecco's modified Eagle's medium (DMEM high Glucose, GIBCO, cat. No. 41956-039) supplemented with 10% heat inactivated fetal bovine calf serum (Amimed, cat. No. 2-01F16-I), 1% L-Glutamine (Invitrogen, cat. No. 25030-02), 1% penicillin-streptomycin (GIBCO, cat. No. 15140-114) at 37° C. in a 5% CO2 and 95% relative humidity atmosphere incubator.
The TSC1−/− cells were trypsinized and counted with a CASY TT cell counter (Schärfe System GmbH, Reutlingen Germany). The cells were diluted in fresh DMEM complete medium and 0.75×10^4 cells/150 μl/well seeded in 96-well TPP-tissue culture plates (TPP, cat. No. 92096). The plates were incubated at 37° C. and 5% CO2 under humidified condition for at least 20 h. Working solutions were prepared freshly as serial 8 step dilutions (vol/vol) in DMSO on the day of the experiment. The working solutions were further diluted 1/5000 in cell culture medium to get final compound concentrations of […]. The final DMSO concentration was kept constant at 0.02%. cell culture medium containing 0.02% DMSO was used as vehicle treatment control. Post incubation, the cells were treated with the serial compound dilution. 50 μl of the compound medium mixture was added to the wells containing cells and 150 μl DMEM medium and incubated for 60 minutes (37° C., 5% CO2). After 60 minutes of incubation, the medium mixture was quickly removed by aspiration. For cell lysis, a mixture of 10% CLB1 CeLyA lysis buffer (Zeptosens, cat. No. 9000), 90% CSBL1 CeLyA spotting buffer (Zeptosens, cat. No. 9020) was freshly prepared and supplemented with 1% Octyl β-D-glucopyranoside (SIGMA, cat. No. 08001-5G) and 1 mM Na-Orthovanadate (Sigma, cat No. S-6508). 50 μl of the described lysis buffer mix was added to each well, followed by 10 minutes of incubation on ice. After an additional freeze-thaw cycle, another 50 μl of the lysis buffer mix without Octyl β-D-glucopyranoside was added to the wells, and 90 μl of the cell lysate was transferred to a 96-well V-bottom plate (Fisher Scientific, cat. No. 6067Y), followed by a centrifugation step (5 min, 1500 rpm at 19° C. in an Eppendorf 5810R centrifuge) to remove the unlysed cell debris.
The spotting of the chips follows the previous described method.
The signal detection and the data analysis follows the previous described method using the pS6 ribosomal protein Ser235/236 (CST, cat. No. #2211) as a primary antibody.

T1 sequence (P42336 with tags, fused parts or gaps limits assumed): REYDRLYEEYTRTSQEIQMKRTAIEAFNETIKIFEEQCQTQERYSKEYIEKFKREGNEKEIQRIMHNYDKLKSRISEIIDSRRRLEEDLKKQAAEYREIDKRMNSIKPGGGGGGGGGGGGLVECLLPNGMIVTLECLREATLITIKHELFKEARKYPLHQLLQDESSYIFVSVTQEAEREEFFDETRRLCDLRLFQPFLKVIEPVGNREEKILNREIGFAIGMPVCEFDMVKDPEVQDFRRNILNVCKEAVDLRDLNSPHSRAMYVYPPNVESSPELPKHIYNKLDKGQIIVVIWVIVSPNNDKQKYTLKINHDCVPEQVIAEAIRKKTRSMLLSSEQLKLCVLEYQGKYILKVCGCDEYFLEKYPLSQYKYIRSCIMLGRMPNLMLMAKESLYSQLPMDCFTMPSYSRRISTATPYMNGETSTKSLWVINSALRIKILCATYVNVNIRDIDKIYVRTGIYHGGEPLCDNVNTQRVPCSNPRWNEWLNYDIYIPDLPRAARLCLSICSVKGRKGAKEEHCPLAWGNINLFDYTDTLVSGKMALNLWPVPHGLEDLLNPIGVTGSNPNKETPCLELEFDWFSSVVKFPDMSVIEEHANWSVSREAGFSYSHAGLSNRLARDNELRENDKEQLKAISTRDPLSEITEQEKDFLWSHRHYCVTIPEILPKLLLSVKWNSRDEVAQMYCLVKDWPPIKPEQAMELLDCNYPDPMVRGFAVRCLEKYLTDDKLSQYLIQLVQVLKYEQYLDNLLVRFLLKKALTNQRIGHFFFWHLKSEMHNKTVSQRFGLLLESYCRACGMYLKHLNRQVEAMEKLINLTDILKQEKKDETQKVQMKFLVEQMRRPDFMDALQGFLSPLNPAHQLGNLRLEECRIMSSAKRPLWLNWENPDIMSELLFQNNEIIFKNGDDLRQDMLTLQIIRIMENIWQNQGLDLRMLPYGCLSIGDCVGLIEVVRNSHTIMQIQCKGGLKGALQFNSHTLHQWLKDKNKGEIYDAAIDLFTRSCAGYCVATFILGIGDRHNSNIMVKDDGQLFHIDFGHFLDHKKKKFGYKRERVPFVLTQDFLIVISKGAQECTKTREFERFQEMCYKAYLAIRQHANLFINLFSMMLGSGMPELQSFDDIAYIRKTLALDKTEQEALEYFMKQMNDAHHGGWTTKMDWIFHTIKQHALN

SMILES | IC50 ([1]; read-out: EPK_PI3Kalfa/IC50) | IC50 ([2]; read-out: p-S6 IC50) | IC50 ([1]; read-out: PI3Kalfa/IC50) | IC50 ([2]; read-out: p-S6)
COC1CCN(c2ccc(-n3c(=O)n(C)c4cnc5ccc(-c6cncc(C(C)(C)O)c6)cc5c43)c(C)n2)C1 (stereo not drawn) [Example 28.1, 8-[5-(1-Hydroxy-1-methyl-ethyl)-pyridin-3-yl]-1-[6-(3-methoxy-pyrrolidin-1-yl)-2-methyl-pyridin-3-yl]-3-methyl-1,3-dihydro-imidazo[4,5-c]quinolin-2-one] | 18 nM | 1 nM |  | 
Cc1cccnc1-n1c(=O)n(C)c2cnc3ccc(-c4ccc(C(N)=O)cc4)cc3c21 [Example 3.3, 4-[3-Methyl-1-(3-methyl-pyridin-2-yl)-2-oxo-2,3-dihydro-1H-imidazo[4,5-c]quinolin-8-yl]-benzamide] |  |  | 51 nM | 297 nM
CCOc1cc(-c2ccc3ncc4c(c3c2)n(-c2ccc(N3CCCC3)nc2C)c(=O)n4C)cnc1COC [Example 25.2, 8-(5-Ethoxy-6-methoxymethyl-pyridin-3-yl)-3-methyl-1-(2-methyl-6-pyrrolidin-1-yl-pyridin-3-yl)-1,3-dihydro-imidazo[4,5-c]quinolin-2-one] | 67 nM | 2 nM |  | 
CNc1cc(-c2ccc3ncc4c(c3c2)n(-c2cccnc2C)c(=O)n4C)cnc1C [Example 2.32, 3-Methyl-8-(6-methyl-5-methylamino-pyridin-3-yl)-1-(2-methyl-pyridin-3-yl)-1,3-dihydro-imidazo[4,5-c]quinolin-2-one] | 31 nM | 2 nM |  | 
Cc1nc(F)ccc1-n1c(=O)n(C)c2cnc3ccc(-c4cnc5c(ccn5C)c4)cc3c21 [Example 7.2, 1-(6-Fluoro-2-methyl-pyridin-3-yl)-3-methyl-8-(1-methyl-1H-pyrrolo[2,3-b]pyridin-5-yl)-1,3-dihydro-imidazo[4,5-c]quinolin-2-one] |  |  | 32 nM | 17.9 nM
Cc1ncccc1-n1c(=O)n(C)c2cnc3ccc(-c4cncc(NC(C)C)c4)cc3c21 [Example 2.24, 8-(5-Isopropylamino-pyridin-3-yl)-3-methyl-1-(2-methyl-pyridin-3-yl)-1,3-dihydro-imidazo[4,5-c]quinolin-2-one] | 28 nM | 4 nM |  | 
CCOc1cc(-c2ccc3ncc4c(c3c2)n(-c2ccc(OCCOC)nc2C)c(=O)n4C)cnc1COC [Example 22.1, 8-(5-Ethoxy-6-methoxymethyl-pyridin-3-yl)-1-[6-(2-methoxy-ethoxy)-2-methyl-pyridin-3-yl]-3-methyl-1,3-dihydro-imidazo[4,5-c]quinolin-2-one] | 188 nM | 7 nM |  | 
Cc1nc(N2CCCC2)ccc1-n1c(=O)n(C)c2cnc3ccc(-c4cncc(C(C)(C)O)c4)cc3c21 [Example 25.3, 8-[5-(1-Hydroxy-1-methyl-ethyl)-pyridin-3-yl]-3-methyl-1-(2-methyl-6-pyrrolidin-1-yl-pyridin-3-yl)-1,3-dihydro-imidazo[4,5-c]quinolin-2-one] | < 3 nM | < 0.457 nM |  | 
CNc1ncc(-c2ccc3ncc4c(c3c2)n(-c2ccc(N3CC(O)C3)nc2C)c(=O)n4C)cc1F [Example 29.3, 8-(5-Fluoro-6-methylamino-pyridin-3-yl)-1-[6-(3-hydroxy-azetidin-1-yl)-2-methyl-pyridin-3-yl]-3-methyl-1,3-dihydro-imidazo[4,5-c]quinolin-2-one] | 40 nM | 7.8 nM |  | 
Cc1ncccc1-n1c(=O)n(C)c2cnc3ccc(-c4ccc(C(N)=O)cc4)cc3c21 [Example 2.3, 4-[3-Methyl-1-(2-methyl-pyridin-3-yl)-2-oxo-2,3-dihydro-1H-imidazo[4,5-c]quinolin-8-yl]-benzamide] |  |  | 20 nM | 56.4 nM
COc1ncccc1-n1c(=O)n(C)c2cnc3ccc(-c4cnc5[nH]ccc5c4)cc3c21 [Example 1.2, 1-(2-Methoxy-pyridin-3-yl)-3-methyl-8-(1H-pyrrolo[2,3-b]pyridin-5-yl)-1,3-dihydro-imidazo[4,5-c]quinolin-2-one] |  |  | 15 nM | 2.61 nM
Cc1ncccc1-n1c(=O)n(C)c2cnc3ccc(-c4cnc(N(C)C)nc4)cc3c21 [Example 2.15, 8-(2-Dimethylamino-pyrimidin-5-yl)-3-methyl-1-(2-methyl-pyridin-3-yl)-1,3-dihydro-imidazo[4,5-c]quinolin-2-one] |  |  | 35 nM | 68.2 nM
CNc1ccc(-c2ccc3ncc4c(c3c2)n(-c2ccc(F)nc2C)c(=O)n4C)cn1 [Example 7.4, 1-(6-Fluoro-2-methyl-pyridin-3-yl)-3-methyl-8-(6-methylamino-pyridin-3-yl)-1,3-dihydro-imidazo[4,5-c]quinolin-2-one] |  |  | 27 nM | 8.52 nM
COc1ncc(-c2ccc3ncc4c(c3c2)n(-c2ccc(N3CC(O)C3)nc2C)c(=O)n4C)c(OC)n1 [Example 29.6, 8-(2,4-Dimethoxy-pyrimidin-5-yl)-1-[6-(3-hydroxy-azetidin-1-yl)-2-methyl-pyridin-3-yl]-3-methyl-1,3-dihydro-imidazo[4,5-c]quinolin-2-one] | 23 nM | 5 nM |  | 
Cc1ncccc1-n1c(=O)n(C)c2cnc3ccc(-c4ccc(N)nc4)cc3c21 [Example 2.7, 8-(6-Amino-pyridin-3-yl)-3-methyl-1-(2-methyl-pyridin-3-yl)-1,3-dihydro-imidazo[4,5-c]quinolin-2-one] |  |  | 18 nM | 12.4 nM
CCNc1cc(-c2ccc3ncc4c(c3c2)n(-c2ccc(N3CCC3)nc2C)c(=O)n4C)cnc1CO [Example 23.8, 1-(6-Azetidin-1-yl-2-methyl-pyridin-3-yl)-8-(5-ethylamino-6-hydroxymethyl-pyridin-3-yl)-3-methyl-1,3-dihydro-imidazo[4,5-c]quinolin-2-one] | 14 nM | 6 nM |  | 
Cc1ncccc1-n1c(=O)n(C)c2cnc3ccc(-c4ccc(OCCCN(C)C)nc4)cc3c21 [Example 2.10, 8-[6-(3-Dimethylamino-propoxy)-pyridin-3-yl]-3-methyl-1-(2-methyl-pyridin-3-yl)-1,3-dihydro-imidazo[4,5-c]quinolin-2-one] |  |  |  | 159 nM
Cc1cccnc1-n1c(=O)n(C)c2cnc3ccc(-c4ccc(CO)nc4)cc3c21 [Example 3.9, 8-(6-Hydroxymethyl-pyridin-3-yl)-3-methyl-1-(3-methyl-pyridin-2-yl)-1,3-dihydro-imidazo[4,5-c]quinolin-2-one] |  |  | 383 nM | 
CCOc1ccc(-c2ccc3ncc4c(c3c2)n(-c2ncccc2C)c(=O)n4C)cn1 [Example 3.6, 8-(6-Ethoxy-pyridin-3-yl)-3-methyl-1-(3-methyl-pyridin-2-yl)-1,3-dihydro-imidazo[4,5-c]quinolin-2-one] |  |  | 206 nM | 
Cc1nc(N2CCC2)ccc1-n1c(=O)n(C)c2cnc3ccc(-c4cncc(OC(C)C)c4)cc3c21 [Example 23.9, 1-(6-Azetidin-1-yl-2-methyl-pyridin-3-yl)-8-(5-isopropoxy-pyridin-3-yl)-3-methyl-1,3-dihydro-imidazo[4,5-c]quinolin-2-one] | 33 nM |  |  | 
CNc1ccc(-c2ccc3ncc4c(c3c2)n(-c2ccc(N3CCC3)nc2C)c(=O)n4C)cn1 [Example 23.4, 1-(6-Azetidin-1-yl-2-methyl-pyridin-3-yl)-3-methyl-8-(6-methylamino-pyridin-3-yl)-1,3-dihydro-imidazo[4,5-c]quinolin-2-one] | 27 nM |  |  | 
CCNc1ncc(-c2ccc3ncc4c(c3c2)n(-c2ccc(C(C)(C)O)nc2C)c(=O)n4C)cn1 [Example 31.7, 8-(2-Ethylamino-pyrimidin-5-yl)-1-[6-(1-hydroxy-1-methyl-ethyl)-2-methyl-pyridin-3-yl]-3-methyl-1,3-dihydro-imidazo[4,5-c]quinolin-2-one] | 75 nM |  |  | 
CNc1ncc(-c2ccc3ncc4c(c3c2)n(-c2ncccc2C)c(=O)n4C)cn1 [Example 3.4, 3-Methyl-8-(2-methylamino-pyrimidin-5-yl)-1-(3-methyl-pyridin-2-yl)-1,3-dihydro-imidazo[4,5-c]quinolin-2-one] |  |  | 80 nM | 
